Here are results for eleven compounds from US9045445B2, “Glycine transporter-1 inhibitors, methods of making them, and uses thereof” (Albany Molecular Research, Inc., priority 2010, dated 2015).

Counter-ions that a name gives are not always drawn. Like-named read-outs stand apart in the source and are kept apart here.

The target in test [1] is T1, glycine transporter-1 (GlyT-1) (Homo sapiens, UniProt P48067).
T1 construct: JAR cells (ATCC#HTB-144), which endogenously express GlyT-1; host or cells: JAR human choriocarcinoma cells
T1 sequence (P48067 1-706): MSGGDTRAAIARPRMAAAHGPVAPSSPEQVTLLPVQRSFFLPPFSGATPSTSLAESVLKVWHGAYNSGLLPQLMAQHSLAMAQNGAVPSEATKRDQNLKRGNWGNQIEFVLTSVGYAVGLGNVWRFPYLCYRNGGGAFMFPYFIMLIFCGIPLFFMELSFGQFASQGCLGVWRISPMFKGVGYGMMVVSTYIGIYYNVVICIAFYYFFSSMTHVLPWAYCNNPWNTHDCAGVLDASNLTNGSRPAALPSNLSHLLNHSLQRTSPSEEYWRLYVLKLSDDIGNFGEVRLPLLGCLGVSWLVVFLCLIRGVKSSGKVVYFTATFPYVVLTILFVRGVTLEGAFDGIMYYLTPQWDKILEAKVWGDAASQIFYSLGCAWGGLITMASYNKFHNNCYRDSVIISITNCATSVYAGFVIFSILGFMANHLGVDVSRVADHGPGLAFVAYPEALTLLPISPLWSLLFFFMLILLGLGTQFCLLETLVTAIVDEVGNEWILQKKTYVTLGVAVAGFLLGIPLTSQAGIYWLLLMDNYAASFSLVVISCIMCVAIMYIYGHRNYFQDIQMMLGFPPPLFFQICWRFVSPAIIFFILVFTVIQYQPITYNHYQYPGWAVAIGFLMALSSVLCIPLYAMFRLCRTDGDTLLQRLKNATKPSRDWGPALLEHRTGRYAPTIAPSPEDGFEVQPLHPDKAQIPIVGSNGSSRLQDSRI
The test is described as follows: [14C]glycine uptake assay in JAR cells endogenously expressing GlyT-1 (scintillation proximity). It is filed as cell-based. The following applies: JAR cells, [14C]glycine 5 μM, 3 hour incubation; read-out: GlyT-1 IC50. The method, boiled down: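 Human choriocarcinoma JAR cells (endogenous GlyT-1) attached overnight, then pre-incubated 10 min at room temperature with compound in pH 7.4 Hepes uptake buffer containing 5 mM alanine and 0.75% DMSO. Uptake of 5 μM [14C]glycine over 3 h at 37 °C read by scintillation proximity; IC50 from four-parameter fit of nine-point curves.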
On the technique in general: SPA uses beads or plates that emit light when radiolabelled molecules are held near them.

In test [2] the target is T2, glycine transporter-2 (GlyT-2) (Homo sapiens, UniProt Q9Y345).
T2 construct: expressed in transfected cells
T2 sequence (Q9Y345 1-797): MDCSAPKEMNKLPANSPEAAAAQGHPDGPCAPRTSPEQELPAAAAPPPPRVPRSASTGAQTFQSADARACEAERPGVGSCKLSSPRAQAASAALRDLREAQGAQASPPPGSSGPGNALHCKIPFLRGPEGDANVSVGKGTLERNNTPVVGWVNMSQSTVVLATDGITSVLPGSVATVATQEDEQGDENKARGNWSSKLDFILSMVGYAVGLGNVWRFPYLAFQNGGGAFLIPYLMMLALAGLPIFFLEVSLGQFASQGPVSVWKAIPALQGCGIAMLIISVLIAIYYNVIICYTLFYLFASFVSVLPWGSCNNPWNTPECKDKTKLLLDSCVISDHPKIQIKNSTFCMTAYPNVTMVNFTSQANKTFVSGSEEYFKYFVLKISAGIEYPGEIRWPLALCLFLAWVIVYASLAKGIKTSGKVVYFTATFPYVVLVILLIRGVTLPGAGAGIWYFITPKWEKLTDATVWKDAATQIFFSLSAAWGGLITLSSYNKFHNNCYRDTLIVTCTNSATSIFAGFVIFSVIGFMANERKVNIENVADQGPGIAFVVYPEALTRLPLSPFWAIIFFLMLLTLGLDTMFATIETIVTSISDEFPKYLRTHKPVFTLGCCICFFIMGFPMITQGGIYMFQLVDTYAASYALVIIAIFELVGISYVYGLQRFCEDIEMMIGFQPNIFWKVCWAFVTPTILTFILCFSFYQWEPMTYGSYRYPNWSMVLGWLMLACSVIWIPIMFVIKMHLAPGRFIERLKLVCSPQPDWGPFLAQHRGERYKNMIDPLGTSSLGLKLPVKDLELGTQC
The test is described as follows: [14C]glycine uptake assay in HEK-GlyT-2 transfected cells. It is filed as cell-based. The following applies: HEK-GlyT-2 cells.

Test [3] concerns cerebrospinal fluid (CSF) glycine levels. The test is described as follows: CSF-glycine assay after oral administration. It is filed as in vivo. The following applies: rats; for change in vivo at 10 mg/kg / change in vivo at 30 mg/kg / change in vivo at 100 mg/kg / change in vivo at 3 mg/kg: Rattus norvegicus, po, read-out: % CSF Glycine Increase versus Vehicle Control. The procedure: This study measured cerebrospinal fluid (CSF) glycine levels after oral administration of test compound. […] After the specified pretreatment time, the rats were euthanized by CO2 asphyxiation and a hypodermic needle was inserted into the cisterna magna to withdraw 50-100 μl of CSF. The CSF was diluted with deuterated-glycine as an internal standard glycine was quantified by LC/MS/MS.

The mark [4] stands for this setting: 0.5 h, dose 10 mg/kg, pretreatment 30 mins.
Where [5] appears, read: 0.5 h, dose 30 mg/kg, pretreatment 30 mins.
Setting [6] is: 2 h, dose 10 mg/kg, pretreatment 120 mins.
Setting [7] is: 2 h, dose 30 mg/kg, pretreatment 120 mins.
Setting [8] is: 6 h, dose 10 mg/kg, pretreatment 360 mins.

Turning to `Cn1cnc(S(=O)(=O)N2CCN(C3(CNC(=O)c4ccc(F)cc4F)CCC(F)(F)CC3)CC2)c1` [compound 162, N-((4,4-difluoro-1-(4-(1-methyl-1H-imidazol-4-ylsulfonyl)piperazin-1-yl)cyclohexyl)methyl)-2,4-difluorobenzamide Hydrochloride], the figures for the IC50 in test [1] and in test [2] were 46 nM and above 135000 nM, respectively. The change in vivo at 10 mg/kg came out at 154% in test [3] (setting [4]) and 130% in test [3] (setting [6]). For the same compound, the figures for the change in vivo at 30 mg/kg in test [3] (setting [5]) and in test [3] (setting [7]) were 178% and 156%, respectively. In addition, the change in vivo at 100 mg/kg in test [3] (0.5 h, pretreatment 30 mins) stood at 207%; in test [3] (2 h, pretreatment 120 mins), 156%.
As for `Cn1cnc(S(=O)(=O)N2CCN(C3(CNC(=O)c4c(F)cccc4F)CCC(F)(F)CC3)CC2)c1` [compound 163, N-((4,4-Difluoro-1-(4-(1-methyl-1H-imidazol-4-ylsulfonyl)piperazin-1-yl)cyclohexyl)methyl)-2,6-difluorobenzamide Hydrochloride], the IC50 in test [1] turned out to be 18 nM; in test [2] it was 74900 nM. Further, the results for the change in vivo at 10 mg/kg in test [3] (setting [4]) and in test [3] (setting [6]) were 123% and 132%, respectively. Moreover, the change in vivo at 30 mg/kg in test [3] (setting [5]) came out at 202%; in test [3] (setting [7]) it was 215%. In addition, the change in vivo at 100 mg/kg in test [3] (0.5 h, pretreatment 30 mins) is 280%; in test [3] (2 h, pretreatment 120 mins), 221%.
Turning to “N-((4,4-Difluoro-1-(4- (propylsulfonyl)piperazin- 1-yl)cyclohexyl)methyl)- 2,4-bis(trifluoromethyl) benzamide Hydrochloride [compound 246]”, the values for the IC50 in test [1] and in test [2] were 7 nM and above 75000 nM, respectively. In addition, the “% CSF Glycine Increase versus Vehicle Control” value is 191% in test [3] (dose 10 mg/kg, pretreatment 120 mins); 166% in test [3] (dose 10 mg/kg, pretreatment 360 mins); 205% in test [3] (dose 30 mg/kg, pretreatment 120 mins); 244% in test [3] (dose 30 mg/kg, pretreatment 360 mins).
In the case of `CC(O)CS(=O)(=O)N1CCN(C2(CNC(=O)c3ccc(C(F)(F)F)cc3Cl)CCC(F)(F)CC2)CC1` (centres unmarked) [compound 252, 2-Chloro-N-((4,4-difluoro-1-(4-(2-hydroxypropylsulfonyl)piperazin-1-yl)cyclohexyl)methyl)-4-(trifluoromethyl)benzamide Hydrochloride], the IC50 was 33 nM in test [1] and above 75000 nM in test [2]. In addition, the change in vivo at 30 mg/kg in test [3] (setting [7]) was 207%.
With `CC(NC(=O)c1ccc(F)cc1Cl)C1(N2CCN(S(=O)(=O)c3cn(C)nn3)CC2)CCC(F)(F)CC1` (centres unmarked) [compound 219, 2-Chloro-N-(1-(4,4-difluoro-1-(4-(1-methyl-1H-1,2,3-triazol-4-ylsulfonyl)piperazin-1-yl)cyclohexyl)ethyl)-4-fluorobenzamide Hydrochloride], the IC50 in test [1] was 3 nM; in test [2], above 75000 nM. For the same compound, the change in vivo at 3 mg/kg in test [3] (2 h, pretreatment 120 mins) was determined as 181%. In addition, the change in vivo at 10 mg/kg in test [3] (setting [6]) is 310%.
Turning to `CCCS(=O)(=O)N1CCN(C2(CNC(=O)c3ccc(C(F)(F)F)cc3Cl)CCC(F)(F)CC2)CC1` [compound 151, N-((4,4-Difluoro-1-(4-(propylsulfonyl)piperazin-1-yl)cyclohexyl)methyl)-2-chloro-4-(trifluoromethyl)benzamide Hydrochloride], the IC50 was 17 nM in test [1] and above 75000 nM in test [2]. The change in vivo at 10 mg/kg was 209% in test [3] (setting [4]) and 169% in test [3] (setting [6]). Besides, the change in vivo at 30 mg/kg in test [3] (setting [5]) stood at 221%; in test [3] (setting [7]), 249%. In addition, the change in vivo at 100 mg/kg in test [3] (0.5 h, pretreatment 30 mins) was found to be 204%; in test [3] (2 h, pretreatment 120 mins), 238%.
For `Cn1cc(S(=O)(=O)N2CCN(C3(CNC(=O)c4ccc(C(F)(F)F)cc4C(F)(F)F)CCC(F)(F)CC3)CC2)nn1` [compound 221, N-((4,4-Difluoro-1-(4-(1-methyl-1H-1,2,3-triazol-4-ylsulfonyl)piperazin-1-yl)cyclohexyl)methyl)-2,4-bis(trifluoromethyl) benzamide Hydrochloride], the concentration for half-maximal inhibition (IC50) in test [1] was 1 nM; in test [2], above 75000 nM. Besides, the figures for the change in vivo at 10 mg/kg in test [3] (setting [6]) and in test [3] (setting [8]) were 226% and 241%, respectively.
With `CCCS(=O)(=O)N1CCN(C2(CNC(=O)c3ccc(C(F)(F)F)cc3C(F)(F)F)CCOCC2)CC1` [compound 267, N-((4-(4-(propylsulfonyl)piperazin-1-yl)tetrahydro-2H-pyran-4-yl)methyl)-2,4-bis(trifluoromethyl) benzamide Hydrochloride], the IC50 in test [1] was found to be 46 nM. Besides, the change in vivo at 10 mg/kg in test [3] (setting [6]) came out at 138%; in test [3] (setting [8]), 129%. Also, the change in vivo at 30 mg/kg in test [3] (setting [7]) amounted to 229%; in test [3] (6 h, dose 30 mg/kg, pretreatment 360 mins) it was 190%.
For `Cn1cc(S(=O)(=O)N2CCN(C3(CNC(=O)c4ccc(F)cc4Cl)CCC(F)(F)CC3)CC2)nn1` [compound 192, 2-Chloro-N-((4,4-difluoro-1-(4-(1-methyl-1H-1,2,3-triazol-4-ylsulfonyl)piperazin-1-yl)cyclohexyl)methyl)-4-fluorobenzamide Hydrochloride], the concentration for half-maximal inhibition (IC50) in test [1] was 1 nM; in test [2], above 75000 nM. Moreover, the change in vivo at 3 mg/kg in test [3] (0.5 h, pretreatment 30 mins) turned out to be 173%; in test [3] (2 h, pretreatment 120 mins), 199%. Moreover, the figures for the change in vivo at 10 mg/kg in test [3] (setting [4]) and in test [3] (setting [6]) were 195% and 311%, respectively.
In the case of `CCCS(=O)(=O)N1CCN(C2(CNC(=O)c3c(Cl)cc(C(F)(F)F)cc3Cl)CCC(F)(F)CC2)CC1` [compound 258, 2,6-Dichloro-N-((4,4-difluoro-1-(4-(propylsulfonyl)piperazin-1-yl)cyclohexyl)methyl)-4-(trifluoromethyl) benzamide Hydrochloride], the IC50 was 9 nM in test [1] and above 75000 nM in test [2].
Taken in the same sequence, the figures for `CCCS(=O)(=O)N1CCN(C2(CNC(=O)c3ccc(Cl)cc3C)CCCCC2)CC1` [compound 9, 4-Chloro-2-methyl-N-((1-(4-(propylsulfonyl)piperazin-1-yl)cyclohexyl)methyl) benzamide Hydrochloride] were 22 nM and above 75000 nM.

In general, IC50 refers to the point on the concentration scale where inhibition reaches its midpoint.
